Key:
THP-1 macrophages [1] = test: SHP-1 inhibitor effect on phagocytosis of IgG-opsonized particles; type: cell-based, human
Procedure: For phagocytosis assays with CD47 attached particles at 100 nm to 1.1 μm diameter were IgG-opsonizied. THP-1 macrophage, PMA activated were treated with 0-0.5 μM NSC-87877 an SHP-1 Inhibitor (gift from Frank L. Conlon) 5 minutes prior to the addition of IgG-opsonizied particles. Phagocytosis assay occurred at 37° C. for 45 minutes and then fixed for 5 minutes with 5% formaldehyde as described for the phagocytosis assay (Fisher Scientific).
In order to specifically block SHP-1, an inhibitor NSC-87877 was used with a reported high specificity to SHP-1 (Chen et al., 2006, Mol. Pharmacol. 70(2):562-70; Langdon et al., 2007, Development 134(22):4119-30). […] The uptake of these particles was measured as the number of particles ingested per phagocyte.

SHP-1 = SHP-1 (Homo sapiens, UniProt P29350); conditions: reported, Chen et al., 2006; cited from earlier work
SHP-1, sequence (P29350 whole entry): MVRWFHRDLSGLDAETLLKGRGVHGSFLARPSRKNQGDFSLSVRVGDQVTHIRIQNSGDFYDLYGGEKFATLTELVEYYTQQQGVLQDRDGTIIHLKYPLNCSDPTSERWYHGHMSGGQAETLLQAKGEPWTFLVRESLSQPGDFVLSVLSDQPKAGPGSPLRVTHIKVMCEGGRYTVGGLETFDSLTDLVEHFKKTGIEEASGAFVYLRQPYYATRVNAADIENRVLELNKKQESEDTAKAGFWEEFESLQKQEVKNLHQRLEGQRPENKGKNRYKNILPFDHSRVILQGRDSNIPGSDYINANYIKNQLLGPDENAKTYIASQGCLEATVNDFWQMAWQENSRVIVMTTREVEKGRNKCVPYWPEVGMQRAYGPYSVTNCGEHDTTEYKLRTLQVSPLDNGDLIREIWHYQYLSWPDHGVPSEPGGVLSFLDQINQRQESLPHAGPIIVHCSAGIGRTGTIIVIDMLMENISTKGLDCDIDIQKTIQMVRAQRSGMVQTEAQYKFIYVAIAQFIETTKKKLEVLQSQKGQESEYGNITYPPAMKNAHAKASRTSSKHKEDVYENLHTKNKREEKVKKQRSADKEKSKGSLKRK

THP-1 macrophages [2] = test: Phagocytosis of IgG-opsonized sheep RBCs by THP-1 macrophages; type: cell-based, human
From the text: Phagocytosis by the human-derived THP-1 macrophages of IgG-opsonized RBCs was studied by imaging in DIC microscopy. […] RBC membranes were prelabeled with PKH26, and non-engulfed RBCs were labeled with a fluorescein-labeled antibody against the Fc of the IgG-opsonin.
To more directly assess the function of the IIA isoform, the effects of both knockdown and overexpression were functionally studied.

THP-1 macrophages [3] = test: Phagocytosis of IgG-opsonized streptavidin beads with or without hCD47 by THP-1 macrophages; type: cell-based, human
Procedure: The extracellular immunoglobulin-like domains of human CD47 (hCD47) was recombinantly expressed with a spacer domain (Brown et al., 1994, Protein Eng. 7:515-21; Brown et al., 1998, J. Exp. Med. 188:2083-90) plus a C-terminal biotinylation site. […] The beads were opsonized by pretreatment with anti-streptavidin to again induce FcR-mediated phagocytosis (for 45 minutes at 37° C.), and non-engulfed beads were detected with a flourescein anti-Fc against the IgG-opsonin. The number of adherent IgG-opsonized beads per phagocyte was independent of hCD47 (not shown).
Human CD47 gave a Ki at high opsonin of 20 CD47/μm^2, which appears ˜10-fold less than normal human RBC densities of CD47. […] A higher baseline level of bead phagocytosis versus RBCs could redirect the fact that stiffer targets are more readily engulfed (Beningo et al., 2002, J. Cell Sci. 115:849-856).
For phagocytosis assays, macrophages were plated in 4 cm^2, or 2 cm^2 Lab-Tek II Chambered Coverglass (Nalge Nunc International, Naperville, Ill.) at 1.5×10^5/cm^2. Streptavidin polystyrene beads of different radius: 3.5 μm, 1.1 μm, 160 nm (Spherotech) and 100 nm (Ademtech) were added to macrophages at a ratio of 2:1, 20:1, 277:1, and 2206:1 respectively and incubate at 37° C. for 45 min. […] Non-phagocytosed beads were washed with PBS. Cells were fixed with 5% formaldehyde (Fisher Scientific) for 5 minutes, followed by immediate replacement with PBS. For differentiation of non-internalized beads, beads were labeled with a primary antibody, rabbit anti-streptavidin (Sigma) at 1:1000 in PBS for 20 min at 25° C. A second antibody, anti-rabbit R-PE (Sigma) was added at 1:1000 in PBS to the cells and incubated for an additional 20 minutes at 25° C. Cells were then washed with PBS/0.4% BSA and then quantified by light and fluorescent microscopy. At least 200 cells were scored per well and experiments were repeated at least three times. […]
Beads were opsonized at saturating densities of IgG, and over a 20-fold range of CD47 densities, the number of internalized beads per THP-1 was measured. […]

THP-1 macrophages [4] = type: cell-based, human
[5] = system: A549 human lung epithelial cells; type: cell-based; conditions: blebbistatin at various concentrations; MOI 270
[6] = system: non-muscle myosin IIA at the phagocytic synapse of THP-1 macrophages; test: Protein localization to the phagocytic synapse (immunofluorescence); type: cell-based, human; conditions: blebbistatin 50 μM, 10 min pre-incubation
Procedure: […] Opsonized beads of different sizes were added to THP-1 cells, PMA treated and immediately placed at 4° C. for 10 min to synchronize phagocytosis. […] For studies involving blebbistatin (EMD Biosciences), macrophages were treated for 10 min at 4° C. prior to temperature increase to 37° C. or for 45 min and 37° C. Macrophages treated with DMSO were used to verify no solvent effects.
Immunostaining was performed by permeabilization with 0.1% Triton X-100 in PBS for 20 min before blocking for 1 h with 5% BSA in PBS. Staining with primary antibodies was carried out for 1 h at room temperature in PBS. Following washing, samples were incubated with appropriate PE-conjugated secondary antibodies (1:1000). To label cytoskeletal proteins at the phagocytic synapse, primary Ab's prepared with Zenon Alexa 488 or Zenon Alexa 647 Fab labeling kits (Invitrogen) labeled for 45 min at room temperature. Cells were immediately fixed using 5% formaldehyde for 20 minutes and washed with PBS. Samples were analyzed by differential interference contrast (DIC) and fluorescence microscopy.
Images were acquired with an inverted microscope (Olympus; IX71) with a 60× (oil, 1.4 NA) objective using a Cascade CCD camera (Photometrics, Tuscon, Ariz.). Image acquisition was performed with Image Pro software (Media Cybernetics, Silver Spring, Md.). […]

Structure (SMILES)	particles ingested per phagocyte, hCD47 particles (THP-1 macrophages [1]; 62.5 nM NSC-87877, 100 nm IgG-opsonized particles with hCD47)	particles ingested per phagocyte, beads without hCD47 (THP-1 macrophages [1]; 62.5 nM NSC-87877, 100 nm IgG-opsonized particles without hCD47)	particles ingested per phagocyte, hCD47 particles (THP-1 macrophages [1]; NSC-87877, 1.1 μm IgG-opsonized particles with hCD47)	IC50 (SHP-1) [nM]	inhibition of ShRBC phagocytosis by GFP-NMM IIA expressing THP-1 (THP-1 macrophages [2]; 5 μM blebbistatin) [%]	engulfment of sheep RBCs by THP-1 macrophages (THP-1 macrophages [2]; compared with CD47 on human RBCs)	Ki (THP-1 macrophages [2]; dose-response, sheep RBCs engulfed by THP-1 macrophages, read-out: Ki-blebb for blebbistatin inhibition of phagocytosis) [nM]	uptake of IgG-opsonized particles by THP-1 (THP-1 macrophages [3]; 50 μM blebbistatin, 100 nm particles, vs DMSO)	uptake of IgG-opsonized particles by THP-1 (THP-1 macrophages [3]; blebbistatin, 1.1 μm particles)	phagocytosis of CD47-null beads (THP-1 macrophages [3]; blebbistatin, uncoated approximately 2.1 μm beads)	transduction of control lentiviral particles (THP-1 macrophages [4]; 50 μM Blebbistatin vs DMSO)	transduction of overexpressed hCD47 lentiviral particles (THP-1 macrophages [4]; 50 μM Blebbistatin vs DMSO)	transduction efficiency of control lentivirus (THP-1 macrophages [4]; blebbistatin at various concentrations, MOI 700)	lentivirus transduction in A549 cells [5]	enrichment of NMM IIA at synaptic contacts with sheep RBC targets [6]
O=S(=O)(O)c1ccc2cc(N=Nc3cc(S(=O)(=O)O)c4cccnc4c3O)ccc2c1 [NSC-87877]	an increase of ingested particles	no statistical difference	increase in uptake comparable to uncoated IgG-opsonizied particles	500											
Cc1ccc2c(c1)C(=O)C1(O)CCN(c3ccccc3)C1=N2 (stereo not drawn) [blebbistatin]					~50	inhibited	5000	decrease in uptake	comparable results	inhibited phagocytosis of CD47-null beads to a level similar as hCD47 beads	inhibited transduction	no changes were observed	dose dependent response	no effect	inhibited enrichment of NMM IIA

Source: US9050269B2, “Protection of virus particles from phagocytosis by expression of CD47” (priority 2009, dated 2015)
